Experiment: The opioid antagonist potency against PL-107 mu-opioid receptor from guinea pig ileum(GPI).Ke (nM) = [antagonist]/(IC50 ratio-1)

Oc1ccc2c3c1O[C@H]1c4ncc(-c5ccccc5)cc4C[C@@]4(O)[C@@H](C2)N(CC2CC2)CC[C@]314
Ki: 0.042 µM

— BindingDB's records for doi:10.1021/jm990039i (Southern Research Institute, 1999)
